These results are taken from publication PMC12378621, “Benzo-ring modification on Malaria Box hit MMV008138: effects on antimalarial potency and microsomal stability” (RSC Medicinal Chemistry, 2025).

Where “and” joins values, the source holds several entries; their conditions need not be identical. Equal entries are not always repeated. Where two headings read alike, the source gives them in different places.

Data set [1] relates to P. falciparum (Dd2 strain). The experiment in a line: ABS P. falciparum growth inhibition, SYBR Green I assay, 72 h endpoint. Type of data set: cell-based, Plasmodium falciparum. Conditions: for EC50: Plasmodium falciparum, DD2, SYBR Green I, 72 h endpoint, read-out: Dd2 strain P. falciparum growth inhibition EC50; for loss of growth inhibition potency (EC50) relative to 1: Dd2 strain. The method, then: Parasites were maintained in O-positive human erythrocytes (Grifols, Memphis, TN, USA) at 5% hematocrit in RPMI 1640 medium supplemented with 5 g L^−1 Albumax I (Gibco Life Technologies), 2 g L^−1 glucose (Sigma-Aldrich), 2.3 g L^−1 sodium bicarbonate (Sigma-Aldrich), 370 μM hypoxanthine (Sigma-Aldrich), 25 mM HEPES, and 20 mg L^−1 gentamicin (Gibco Life Technologies). The parasites were kept at 37 °C under reduced-oxygen conditions (5% CO2, 5% O2, and 90% N2).
(§1) […]. MMV008138 (1) was used as control. The percentage of growth was normalized to that of untreated control parasites in the presence of 0.1% DMSO. Background determinations were made using uninfected erythrocytes. Two or more independent experiments in duplicate were performed. The EC50 values were calculated with GraphPad Prism 9 (GraphPad Software Ltd.) using nonlinear regression curve fitting with variable slope (four parameters) and represent the average and their standard error of the mean (S.E.M.). To assess whether 20a–e specifically targeted the apicoplast, the recovery of growth in the presence of inhibitor and isopentenyl diphosphate (IPP) was performed as described previously.[8] Briefly, parasites were grown in the presence or absence of 200 μM IPP along with a serial dilution (10 μM to 0.01 μM) or single concentration (10 or 20 μM) of drug. […] All conditions were set in 96-well half area plates using highly synchronous ring-stage parasite cultures (100 μL per well at 1% hematocrit and 1% parasitemia) and incubated for 72 h under normal culture conditions. Parasite growth was measured by the SYBR green I assay.

Data set [2] relates to Plasmodium berghei ANKA expressing luciferase (PbGFP-Luccon). The experiment in a line: In vivo efficacy in P. berghei-infected mice (luminescence on Day 7). The method, then:
2. In vivo efficacy studies of 1 (NYU) in P. berghei-infected mice (po and iv) Efficacy of 1 in P. berghei-infected mice was assessed at the Anti-Infectives Core Facility, Department of Microbiology, Grossman School of Medicine, New York University.
A. Oral Administration Protocol
Three groups of five female Swiss Webster mice weighing 25 to 30 g were used for vehicle […]
berghei ANKA expressing luciferase (PbGFP-Luccon) obtained from a donor infected mouse.10 […]
2 to 6 and imaged on day 7.
Figure S1. Dosing and imaging timeline of P. berghei-infected mice. […]
Day 7 as described in the text.
The vehicle for all groups was 0.5% (hydroxypropyl)methyl cellulose, 0.5% Tween-80.
For the surviving mice, o n day 7 after infection, mice were anesthetized by inhalation of isofluorane and injected via i.p. with 150 mg/kg of luciferase substrate dissolved in PBS (D-Luciferin Potassium Salt , Gold Biotechnology ).
Mice were imaged 5 to 10 min after inj ection of luciferin using an IVIS imager (Lumina II In Vivo Imaging System; Perkin -Elmer). The data acquisition and analysis were performed with LivingImage (Xenogen). Accumulated light intensity was measured in each mouse to determine the baseline infection levels before treatment .
(1 picture or pasted object on this page, not shown here)
B. IV Administration Protocol
One group of four female Swiss Webster mice weighing 25 to 30 g were used for vehicle control, and groups of five mice were used for 1 treatment (IV, 2 x 30 mg/kg/d) and the positive […]
On Day 0, mice were infected via intraperitoneal (i.p.) […]
from a donor infected mouse. 10 As shown below in Figure S2 (and legend), mice were treated […]
Figure S2. Dosing and imaging timeline of P. berghei-infected mice. Vehicle and 1 (30 mpk) treatments were administered IV twice -daily on Days 2-6. […]
administered i .p. once-daily. Mice were imaged on Day 7, as described in the text.
The vehicle for this study was 30%PEG, 40% Captisol (30%w/v solution).
Table S2. Luminescence Data after background subtraction for IV dosing of Vehicle, 1, and IP […]
Table S9. Concentration of 20c vs time in mice. […]
Figure S6. Dosing and imaging timeline of P. berghei-infected mice. […]

For data set [3], the system named is P. falciparum (Dd2 strain). Conditions: 72 h exposure, multidrug-resistant Dd2 strain; reported values; read-out: Dd2 strain EC50; cited from earlier work.
The test system of data set [4] is P. falciparum (Dd2 strain). The experiment in a line: Metabolic rescue of parasite growth by isopentenyl diphosphate (IPP) supplementation. It counts as cell-based, Plasmodium falciparum. As to conditions: drug at 10 μM. The method, then: as §1
Data set [5] can be described thus: Mouse microsomal stability (authors' laboratory, UPLC/MS/MS). Conditions: presence of NADPH. The method, then:
Mouse microsomal stability of 20a, 20c, 20d was first assessed in our laboratory. […]
and coumarin were used as controls . Microsomal stability was assessed by ultra-performance liquid chromatography and high -resolution mass spectrometry […]
MA). Potassium phosphate monobasic, potassium phosphate dibasic, and coumarin were purchased from Sigma-Aldrich (St. Louis, MO). Briefly, compound incubations were carried out by the addition of mouse liver microsomes (0.5 mg/ml) in 0.05 M potassium phosphate buffer (pH 7.4), solution A and B, and preincubated at 37°C for 5 min. Control experiments were also carried out in the absence of NADPH solution A and B. Coumarin reaction was used as positive control. Reactions were terminated by adding acetonitrile. Sample analysis was performed on an IonKey/MS system composed of an ACQUITY UPLC M-Class, the ionKey source, and an iKey BEH C18 130 Å 1.7 µm 150 µm x 50 mm column coupled to a Synapt G2-Si mass spectrometer (Waters Corporation, Milford, MA, USA). Separation was accomplished using a binary gradient system consisting of 0.1% formic acid in water (mobile phase A) and 0.1% formic acid in acetonitrile (mobile phase B). The linear gradient was programmed as follows: 0-3 min 1% B, 3- […]
was 3 µL/min, the injection volume was 3 µL in full loop mode, and the iKey temperature was set at 40°C. MS analyses were performed acquiring in MSE mode from 80 to 1500 m/z in positive electrospray ionization mode with a capillary voltage of 3 kV. Data were collected in two channels all the time: low collision energy (6.0 V), for the molecular ions, and high collision energy (15-40 V), for product ions. The source temperature was set at 110°C. Leucine […]
scan at 20 s intervals. Infusion flow rate for lock mass was 1 μL/min. The microsomal stability was determined using MassLynx software (Waters Corporation, Milford, MA, USA). Relative amounts were calculated by comparing the peak area of each evaluated compound at time 0 minutes to its corresponding area at times 45, 90 and 180 minutes to return a ratio.

[6] abbreviates: Table S2, Days 2-6, imaged Day 7, Cmpd 1 30 mg/kg 2 x daily IV, CQ 20 mg/kg 1 x daily i.p.
[7] abbreviates: Table 2, enantiopure, average ± S.E.M.

As usually defined, the EC50 is the concentration that produces a half-maximal response.

Consider `Cc1cccc2[nH]c3c(c12)C[C@@H](C(=O)O)N[C@@H]3c1ccc(Cl)cc1Cl` (racemic) [(±)-16a], for which the EC50 in data set [1] (Table 1, racemic samples) is above 10 µM.
In the case of `Cc1ccc2[nH]c3c(c2c1)C[C@@H](C(=O)O)N[C@@H]3c1ccc(Cl)cc1Cl` (racemic) [(±)-16b], the EC50 in data set [1] (Table 1, racemic samples) is above 10 µM.
The same measure, in the same setting: next, `Cc1ccc2c3c([nH]c2c1)[C@@H](c1ccc(Cl)cc1Cl)N[C@H](C(=O)O)C3` (racemic) [(±)-16c]: above 10 µM.
The same measure, in the same setting: for `Cc1cccc2c3c([nH]c12)[C@@H](c1ccc(Cl)cc1Cl)N[C@H](C(=O)O)C3` (racemic) [(±)-16d] the value was above 10 µM; for `O=C(O)[C@@H]1Cc2c([nH]c3cccc(C(F)(F)F)c23)[C@@H](c2ccc(Cl)cc2Cl)N1` (racemic) [(±)-17a], above 10 µM.
On the same count and under the same terms, next, `O=C(O)[C@@H]1Cc2c([nH]c3cc(C(F)(F)F)ccc23)[C@@H](c2ccc(Cl)cc2Cl)N1` (racemic) [(±)-17c]: 1.25 to 2.5 µM.
Consider `O=C(O)[C@@H]1Cc2c([nH]c3ccc(Br)cc23)[C@@H](c2ccc(Cl)cc2Cl)N1` (racemic) [(±)-18b], for which the EC50 in data set [1] (Table 1, racemic samples) was above 10 µM.
On the same count and under the same terms, next, `O=C(O)[C@@H]1Cc2c([nH]c3cccc(Cl)c23)[C@@H](c2ccc(Cl)cc2Cl)N1` (racemic) [(±)-19a]: above 10 µM.
Regarding `CCN(CC)CCCC(C)Nc1ccnc2cc(Cl)ccc12` (centres unmarked) [CQ, chloroquine], the “Luminescence AVG” value in data set [2] (Table S1, oral 1 x daily Days 2-6, imaged Day 7, CQ 20 mg/kg) is 4.65E+03. Besides, in data set [2] (Table S1, oral 1 x daily Days 2-6, imaged Day 7, Cmpd 1 45 mg/kg, CQ 20 mg/kg), the “Live/Dead and luminescence, individual mice” value was 4.72E+03 and 4.45E+03 and 4.90E+03 and 4.60E+03 and 4.61E+03. Also, the “Luminescence after background subtraction AVG” value in data set [2] (setting [6]) came to 2.29E+03. Further, the “Luminescence after background subtraction, individual mice” value in data set [2] (setting [6]) was 0.00E+00 and 4.64E+03 and 2.76E+03 and 3.48E+03; in data set [2] (Table S10, 40 mg/kg 1 x daily PO Days 2-6, imaged Day 7), 4.90E+03 and 3.85E+03 and 4.20E+03. In addition, the “treated mice survived to Day 7” value in data set [2] (oral Days 2-6) is given as 5.
Turning to `O=C(O)[C@@H]1Cc2c([nH]c3ccccc23)[C@@H](c2ccc(Br)cc2Cl)N1` [Compound 2], the EC50 in data set [3] was 0.32 ± 0.06 µM.
With `O=C(O)[C@@H]1Cc2c([nH]c3ccccc23)[C@@H](c2ccccc2Cl)N1` [Compound 3], the EC50 in data set [3] was 3.28 µM.
With `O=C(O)[C@@H]1Cc2c([nH]c3ccccc23)[C@@H](c2ccc(Cl)cc2)N1` [Compound 4], the EC50 in data set [3] was 1.17 µM.
For the compound `O=C(O)[C@@H]1Cc2c([nH]c3ccccc23)[C@@H](c2ccccc2)N1` [Compound 5], in data set [3], the EC50 was above 10 µM.
For the compound `NC(=O)[C@@H]1Cc2c([nH]c3ccccc23)[C@@H](c2ccc(Cl)cc2Cl)N1` [Compound 6], in data set [3], the EC50 was 1.2 µM.
On to `CNC(=O)[C@@H]1Cc2c([nH]c3ccccc23)[C@@H](c2ccc(Cl)cc2Cl)N1` [Compound 7], for which the EC50 in data set [3] was 0.19 ± 0.03 µM.
Regarding `CCNC(=O)[C@@H]1Cc2c([nH]c3ccccc23)[C@@H](c2ccc(Cl)cc2Cl)N1` [Compound 8], in data set [3], the EC50 is around 5 µM.
In the case of `CCCCNC(=O)[C@@H]1Cc2c([nH]c3ccccc23)[C@@H](c2ccc(Cl)cc2Cl)N1` [Compound 9], the EC50 in data set [3] is above 10 µM.
With `CC(C)NC(=O)[C@@H]1Cc2c([nH]c3ccccc23)[C@@H](c2ccc(Cl)cc2Cl)N1` [Compound 10], the EC50 in data set [3] was around 10 µM.
With `O=C(O)[C@@H]1Cc2c([nH]c3cccc(Br)c23)[C@@H](c2ccc(Cl)cc2Cl)N1` [Compound 18a], the EC50 in data set [1] (setting [7]) was above 10 µM.
Turning to `O=C(O)[C@@H]1Cc2c([nH]c3cc(Br)ccc23)[C@@H](c2ccc(Cl)cc2Cl)N1` [Compound 18c], the “loss of growth inhibition potency (EC50) relative to 1” value in data set [1] is reported as 17 fold. In addition, the EC50 in data set [1] (setting [7]) came to 4.3 ± 0.6 µM.
As for `O=C(O)[C@@H]1Cc2c([nH]c3c(Br)cccc23)[C@@H](c2ccc(Cl)cc2Cl)N1` [Compound 18d], in data set [1] (setting [7]), the EC50 is above 10 µM.
Take `O=C(O)[C@@H]1Cc2c([nH]c3cc(Cl)ccc23)[C@@H](c2ccc(Cl)cc2Cl)N1` [Compound 19c]: the “loss of growth inhibition potency (EC50) relative to 1” value in data set [1] is 5 fold. The EC50 in data set [1] (setting [7]) was 1.3 ± 0.1 µM.
In the case of `O=C(O)[C@@H]1Cc2c([nH]c3ccc(F)cc23)[C@@H](c2ccc(Cl)cc2Cl)N1` [Compound 20b], in data set [1] (setting [7]), the EC50 was 1.25 to 2.5 µM.
For the compound `O=C(O)[C@@H]1Cc2c([nH]c3cc(F)cc(F)c23)[C@@H](c2ccc(Cl)cc2Cl)N1` [Compound 20e], the EC50 in data set [1] (setting [7]) was 0.964 ± 0.063 µM. Besides, in data set [4], the “% recovery (200 μM IPP)” value was determined as 80%@10 μM.
Turning to `N#Cc1cccc2[nH]c3c(c12)C[C@@H](C(=O)O)N[C@@H]3c1ccc(Cl)cc1Cl` [Compound 21a], the EC50 in data set [1] (setting [7]) was above 10 µM.
The same measure, in the same setting: next, `N#Cc1ccc2[nH]c3c(c2c1)C[C@@H](C(=O)O)N[C@@H]3c1ccc(Cl)cc1Cl` [Compound 21b]: above 10 µM; `N#Cc1ccc2c3c([nH]c2c1)[C@@H](c1ccc(Cl)cc1Cl)N[C@H](C(=O)O)C3` [Compound 21c]: above 20 µM.
For the compound `O=c1ccc2ccccc2o1` [coumarin], the “% drug remaining” value in data set [5] (0 min) was determined as 100%; in data set [5] (45 min), 27%; in data set [5] (90 min), 5%.
